According to paper doi:10.1101/2024.02.16.580709v1, “Developing Hybrid Systems to Address O2 Uncoupling in Multi-Component Rieske Oxygenases” (biorxiv, 2024):

Legend:
Type in all cases: biochemical
PDR = molecular target: T1, PDR (Burkholderia cepacia, UniProt P33164); assay: ABTS-HRP assay of H2O2 formed; conditions: 24 h; GDH-based NADH regeneration; O2 uncoupling, no ferredoxin
T1 construct: gene ophA1; codon-optimised gene in pET-28a(+), N-terminal 6xHis tag, E. coli JM109(DE3), Ni-sepharose purified; flavin and [2Fe-2S] domains
T1 sequence (P33164 2-322): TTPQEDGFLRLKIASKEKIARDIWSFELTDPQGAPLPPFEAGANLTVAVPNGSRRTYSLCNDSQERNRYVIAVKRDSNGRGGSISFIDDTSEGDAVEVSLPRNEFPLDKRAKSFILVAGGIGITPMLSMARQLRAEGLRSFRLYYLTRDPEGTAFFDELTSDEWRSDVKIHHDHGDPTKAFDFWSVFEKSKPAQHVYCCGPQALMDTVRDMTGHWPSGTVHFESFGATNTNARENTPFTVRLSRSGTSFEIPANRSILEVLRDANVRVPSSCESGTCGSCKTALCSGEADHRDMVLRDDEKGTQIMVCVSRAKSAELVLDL

VanB = molecular target: T2, VanB (Pseudomonas aeruginosa, UniProt Q9HUQ8); assay: ABTS-HRP assay of H2O2 formed; conditions: 24 h; GDH-based NADH regeneration; O2 uncoupling, no ferredoxin
T2 construct: codon-optimised gene in pET-28a(+), N-terminal 6xHis tag, E. coli JM109(DE3), Ni-sepharose purified; flavin and [2Fe-2S] domains
T2 sequence (Q9HUQ8 1-317): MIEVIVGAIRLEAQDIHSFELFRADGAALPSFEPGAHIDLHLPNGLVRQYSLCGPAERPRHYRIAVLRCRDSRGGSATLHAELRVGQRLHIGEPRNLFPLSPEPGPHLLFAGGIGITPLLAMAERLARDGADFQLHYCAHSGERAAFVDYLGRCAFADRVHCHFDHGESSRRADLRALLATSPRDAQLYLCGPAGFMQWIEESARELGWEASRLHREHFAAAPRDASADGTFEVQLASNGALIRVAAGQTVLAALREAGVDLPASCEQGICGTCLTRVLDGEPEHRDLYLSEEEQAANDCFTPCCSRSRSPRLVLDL

[1] = molecular target: T3, CDO (CDO-WT; CDO-Oxy with CDO-Fd and CDO-Red) (Pseudomonas fluorescens, UniProt Q51743); assay: GC-FID product quantification; conditions: 30 °C, 24 h, pH 7.2; NAD+ with GDH/glucose NADH regeneration, catalase, 1 mM DTT; O2
T3 construct: gene cumA1; codon-optimised genes in pET-28a(+), N-terminal 6xHis tag, E. coli JM109(DE3), Ni-sepharose purified; components mixed in vitro; with Cumene dioxygenase terminal oxygenase small (beta) subunit; Cumene dioxygenase ferredoxin; Cumene dioxygenase ferredoxin reductase
T3 sequence (Q51743 1-459): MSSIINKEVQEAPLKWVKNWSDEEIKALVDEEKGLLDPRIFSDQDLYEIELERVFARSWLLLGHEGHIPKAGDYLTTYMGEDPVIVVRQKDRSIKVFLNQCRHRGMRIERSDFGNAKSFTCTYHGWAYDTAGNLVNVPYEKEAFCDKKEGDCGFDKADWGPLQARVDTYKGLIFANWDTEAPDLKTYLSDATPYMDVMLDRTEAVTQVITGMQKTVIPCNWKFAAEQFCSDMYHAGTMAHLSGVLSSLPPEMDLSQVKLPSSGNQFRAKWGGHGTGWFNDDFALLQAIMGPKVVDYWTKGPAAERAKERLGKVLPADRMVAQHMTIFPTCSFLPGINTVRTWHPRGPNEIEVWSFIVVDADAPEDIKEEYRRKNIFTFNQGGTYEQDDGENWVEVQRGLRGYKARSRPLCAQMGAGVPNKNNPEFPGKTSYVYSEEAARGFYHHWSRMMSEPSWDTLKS
T3 sequence (Q51744 1-186 partner): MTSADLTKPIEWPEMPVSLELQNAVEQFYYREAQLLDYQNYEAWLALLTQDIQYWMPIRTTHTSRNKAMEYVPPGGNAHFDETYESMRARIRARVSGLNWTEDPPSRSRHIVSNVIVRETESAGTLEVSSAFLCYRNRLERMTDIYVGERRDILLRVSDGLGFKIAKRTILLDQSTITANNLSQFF

Row | Structure (SMILES) | ABTS-HRP assay of H2O2 formed (PDR) | ABTS-HRP assay of H2O2 formed (VanB) | GC-FID product quantification [1]
1 | NC(=O)C1=CN([C@@H]2O[C@H](COP(=O)(O)OP(=O)(O)OC[C@H]3O[C@@H](n4cnc5c(N)ncnc54)[C@H](O)[C@@H]3O)[C@@H](O)[C@H]2O)C=CC1 [NADH] | the H2O2 formation by PDR and VanB was evaluated analogously | the H2O2 formation by PDR and VanB was evaluated analogously | 
2 | C1=Cc2ccccc2C1 [compound 1, indene] |  |  | product formation in in vitro reactions with complete CDO-WT
